Test results as given in US8952024B2, “Herbicidal pyrimidone derivatives” (E I du Pont de Nemours and Company, priority 2009, dated 2015).

Key:
Type in all cases: in vivo
[1] = system: velvetleaf (Abutilon theophrasti); test: Test A pre-/postemergence plant response
From the text: (§1) Seeds of barnyardgrass (Echinochloa crus-galli), large crabgrass (Digitaria sanguinalis), giant foxtail (Setaria faberii), morningglory (Ipomoea spp.), pigweed (Amaranthus retroflexus), velvetleaf (Abutilon theophrasti), wheat (Triticum aestivum) and corn (Zea mays) were planted into a blend of loam soil and sand and treated preemergence with a directed soil spray using test chemicals formulated in a non-phytotoxic solvent mixture which included a surfactant. At the same time these species were also treated with postemergence applications of test compounds formulated in the same manner.
(§2) Plants ranged in height from two to ten cm and were in the one- to two-leaf stage for the postemergence treatment. Treated plants and untreated controls were maintained in a greenhouse for approximately ten days, after which time all treated plants were compared to untreated controls and visually evaluated for injury. Plant response ratings, summarized in Table A, are based on a 0 to 100 scale where 0 is no effect and 100 is complete control. A dash (-) response means no test result.

[2] = system: large crabgrass (Digitaria sanguinalis); test: Test A pre-/postemergence plant response
From the text: as §1, §2

[3] = system: morningglory (Ipomoea spp.); test: Test A pre-/postemergence plant response
From the text: as §1, §2

corn (Zea mays) = test: Test A pre-/postemergence plant response
From the text: as §1, §2

[4] = system: wheat (Triticum aestivum); test: Test A pre-/postemergence plant response
From the text: as §1, §2

[5] = system: giant foxtail (Setaria faberii); test: Test A pre-/postemergence plant response
From the text: as §1, §2

[6] = system: barnyardgrass (Echinochloa crus-galli); test: Test A pre-/postemergence plant response
From the text: as §1, §2

[7] = system: pigweed (Amaranthus retroflexus); test: Test A pre-/postemergence plant response
From the text: as §1, §2

[8] = system: umbrella sedge (Cyperus difformis); test: Test B flooded paddy test; conditions: for Plant response rating, Flood, Sedge, Umbrella: 250 g ai/ha, flooded paddy test, visual rating on 0 to 100 scale (0 no effect, 100 complete control) after 13 to 15 days; for Plant response rating, Sedge, Umbrella: Flood (flooded paddy test), 13 to 15 days; for Sedge, Umbrella plant response rating: Flood, 31 g ai/ha, scale 0 to 100 (0 no effect, 100 complete control)
From the text: (§3) Plant species in the flooded paddy test consisted of rice (Oryza sativa), umbrella sedge (Cyperus difformis), ducksalad (Heteranthera limosa) and barnyardgrass (Echinochloa crus-galli) grown to the 2-leaf stage for testing. At the time of treatment, test pots were flooded with water to 3 cm above the soil surface, treated by application of test compounds directly to the paddy water, and then maintained at that water depth for the duration of the test.
(§4) Treated plants and controls were maintained in a greenhouse for 13 to 15 days, after which time all treated plants were visually evaluated and compared to controls. Plant response ratings, summarized in Table B, are based on a scale of 0 to 100 where 0 is no effect and 100 is complete control. A dash (-) response means no test result.

rice (Oryza sativa) = test: Test B flooded paddy test; conditions: for Plant response rating, Flood, Rice: 250 g ai/ha, flooded paddy test, visual rating on 0 to 100 scale (0 no effect, 100 complete control) after 13 to 15 days; for Plant response rating, Rice: Flood (flooded paddy test), 13 to 15 days; for Rice plant response rating: Flood, 31 g ai/ha, scale 0 to 100 (0 no effect, 100 complete control)
From the text: as §3, §4

[9] = system: barnyardgrass (Echinochloa crus-galli); test: Test B flooded paddy test; conditions: for Plant response rating, Flood, Barnyardgrass: 250 g ai/ha, flooded paddy test, visual rating on 0 to 100 scale (0 no effect, 100 complete control) after 13 to 15 days; for Plant response rating, Barnyardgrass: Flood (flooded paddy test), 13 to 15 days; for Barnyardgrass plant response rating: Flood, 31 g ai/ha, scale 0 to 100 (0 no effect, 100 complete control)
From the text: as §3, §4

[10] = system: ducksalad (Heteranthera limosa); test: Test B flooded paddy test; conditions: for Plant response rating, Flood, Ducksalad: 250 g ai/ha, flooded paddy test, visual rating on 0 to 100 scale (0 no effect, 100 complete control) after 13 to 15 days; for Plant response rating, Ducksalad: Flood (flooded paddy test), 13 to 15 days; for Ducksalad plant response rating: Flood, 31 g ai/ha, scale 0 to 100 (0 no effect, 100 complete control)
From the text: as §3, §4

[11] = Postemergence, 125 g ai/ha, 0 to 100 scale where 0 is no effect and 100 is complete control
[12] = Postemergence, 500 g ai/ha, 0 to 100 scale, 0 = no effect, 100 = complete control, approx. ten days
[13] = Preemergence, 125 g ai/ha, 0 to 100 scale, 0 = no effect, 100 = complete control
[14] = Preemergence, 500 g ai/ha, 0 to 100 scale, 0 = no effect, 100 = complete control
[15] = Preemergence, 500 g ai/ha, visual injury, 0 to 100 scale (0 no effect, 100 complete control), approx. ten days
[16] = 62 g ai/ha, scale of 0 to 100 where 0 is no effect and 100 is complete control
[17] = 125 g ai/ha, scale 0 to 100, 0 is no effect, 100 is complete control
[18] = Postemergence, 500 g ai/ha, visual injury, 0 to 100 scale (0 no effect, 100 complete control), approx. ten days

CCn1c(-c2cccc(Cl)c2)ncc(C(=O)C2=C(O)CCCC2=O)c1=O [Compound 145]
Plant response rating, Velvetleaf [1, 11]: 100 | Plant response rating, Velvetleaf [1, 12]: 100 | Plant response rating, Velvetleaf [1, 13]: 90 | Plant response rating, Velvetleaf [1, 14]: 100 | Plant response rating, Crabgrass, Large [2, 11]: 70 | Plant response rating, Crabgrass, Large [2, 12]: 90 | Plant response rating, Crabgrass, Large [2, 13]: 50 | Plant response rating, Crabgrass, Large [2, 15]: 100 | Plant response rating, Morningglory [3, 11]: 90 | Plant response rating, Morningglory [3, 12]: 90 | Plant response rating, Morningglory [3, 13]: 0 | Plant response rating, Morningglory [3, 15]: 80 | Plant response rating, Corn (corn (Zea mays); [11]): 30 | Plant response rating, Corn (corn (Zea mays); [12]): 40 | Plant response rating, Corn (corn (Zea mays); [13]): 0 | Plant response rating, Corn (corn (Zea mays); [15]): 20 | Plant response rating, Wheat [4, 11]: 0 | Plant response rating, Wheat [4, 12]: 0 | Plant response rating, Wheat [4, 13]: 0 | Plant response rating, Wheat [4, 14]: 20 | Plant response rating, Foxtail, Giant [5, 11]: 60 | Plant response rating, Foxtail, Giant [5, 12]: 80 | Plant response rating, Foxtail, Giant [5, 13]: 30 | Plant response rating, Foxtail, Giant [5, 15]: 70 | Plant response rating, Barnyardgrass [6, 11]: 70 | Plant response rating, Barnyardgrass [6, 12]: 100 | Plant response rating, Barnyardgrass [6, 13]: 20 | Plant response rating, Barnyardgrass [6, 15]: 90 | Plant response rating, Pigweed [7, 11]: 100 | Plant response rating, Pigweed [7, 12]: 100 | Plant response rating, Pigweed [7, 13]: 70 | Plant response rating, Pigweed [7, 15]: 100 | Plant response rating, Flood, Sedge, Umbrella [8]: 80 | Plant response rating, Sedge, Umbrella [8, 16]: 0 | Plant response rating, Sedge, Umbrella [8, 17]: 60 | Sedge, Umbrella plant response rating [8]: 0 | Plant response rating, Flood, Rice (rice (Oryza sativa)): 0 | Plant response rating, Rice (rice (Oryza sativa); [16]): 0 | Plant response rating, Rice (rice (Oryza sativa); [17]): 0 | Rice plant response rating (rice (Oryza sativa)): 0 | Plant response rating, Flood, Barnyardgrass [9]: 25 | Plant response rating, Barnyardgrass [9, 16]: 0 | Plant response rating, Barnyardgrass [9, 17]: 0 | Barnyardgrass plant response rating [9]: 0 | Plant response rating, Flood, Ducksalad [10]: 80 | Plant response rating, Ducksalad [10, 16]: 80 | Plant response rating, Ducksalad [10, 17]: 80 | Ducksalad plant response rating [10]: 80

COc1ccc(-n2c(-c3cccc(F)c3)ncc(C(=O)C3=C(O)CCCC3=O)c2=O)cc1 [Compound 203]
Plant response rating, Velvetleaf [1, 11]: 90 | Velvetleaf plant response rating [1, 18]: 100 | Plant response rating, Velvetleaf [1, 13]: 50 | Plant response rating, Velvetleaf [1, 14]: 80 | Plant response rating, Crabgrass, Large [2, 11]: 30 | Crabgrass, Large plant response rating [2, 18]: 70 | Plant response rating, Crabgrass, Large [2, 13]: 20 | Plant response rating, Crabgrass, Large [2, 14]: 70 | Plant response rating, Morningglory [3, 11]: 100 | Morningglory plant response rating [3, 18]: 100 | Plant response rating, Morningglory [3, 13]: 0 | Plant response rating, Morningglory [3, 14]: 70 | Plant response rating, Corn (corn (Zea mays); [11]): 0 | Corn plant response rating (corn (Zea mays); [18]): 30 | Plant response rating, Corn (corn (Zea mays); [13]): 0 | Plant response rating, Corn (corn (Zea mays); [14]): 20 | Plant response rating, Wheat [4, 11]: 0 | Wheat plant response rating [4, 18]: 30 | Plant response rating, Wheat [4, 13]: 0 | Plant response rating, Wheat [4, 14]: 30 | Plant response rating, Foxtail, Giant [5, 11]: 30 | Foxtail, Giant plant response rating [5, 18]: 80 | Plant response rating, Foxtail, Giant [5, 13]: 30 | Plant response rating, Foxtail, Giant [5, 14]: 90 | Plant response rating, Barnyardgrass [6, 11]: 80 | Barnyardgrass plant response rating [6, 18]: 100 | Plant response rating, Barnyardgrass [6, 13]: 30 | Plant response rating, Barnyardgrass [6, 14]: 70 | Plant response rating, Pigweed [7, 11]: 100 | Pigweed plant response rating [7, 18]: 100 | Plant response rating, Pigweed [7, 13]: 100 | Plant response rating, Pigweed [7, 14]: 100 | Plant response rating, Flood, Sedge, Umbrella [8]: 85 | Plant response rating, Sedge, Umbrella [8, 16]: 65 | Plant response rating, Sedge, Umbrella [8, 17]: 75 | Sedge, Umbrella plant response rating [8]: 0 | Plant response rating, Flood, Rice (rice (Oryza sativa)): 0 | Plant response rating, Rice (rice (Oryza sativa); [16]): 0 | Plant response rating, Rice (rice (Oryza sativa); [17]): 0 | Rice plant response rating (rice (Oryza sativa)): 0 | Plant response rating, Flood, Barnyardgrass [9]: 20 | Plant response rating, Barnyardgrass [9, 16]: 0 | Plant response rating, Barnyardgrass [9, 17]: 0 | Barnyardgrass plant response rating [9]: 0 | Plant response rating, Flood, Ducksalad [10]: 95 | Plant response rating, Ducksalad [10, 16]: 75 | Plant response rating, Ducksalad [10, 17]: 95 | Ducksalad plant response rating [10]: 40
